# Reference: ChEMBL document CHEMBL1201862, “PubChem BioAssay data set” (2004)
#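 Briefly, cells in 96-well plates were exposed to five compound concentrations for 48 h, and endpoints were estimated by linear interpolation. The concentration for 50% growth inhibition is given as GI50.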 Activity calls are given as the source filed them. Rule as the data show it: active = GI50 up to about 1.1 µM and inactive = higher.
# What was measured:
# Assay in all cases: NCI anticancer screen, dose series, 48 h
# 786-0 = tested on: 786-0
# A498 = tested on: A498
# A549 = tested on: A549
# ACHN = tested on: ACHN
# BT-549 = tested on: BT-549
# CAKI-1 = tested on: CAKI-1
# CCRF-CEM = tested on: CCRF-CEM
# COLO 205 = tested on: COLO 205
# DU-145 = tested on: DU-145
# EKVX = tested on: EKVX
# HCC 2998 = tested on: HCC 2998
# HCT-116 = tested on: HCT-116
# HCT-15 = tested on: HCT-15
# HL-60 = tested on: HL-60
# HOP-62 = tested on: HOP-62
# HT-29 = tested on: HT-29
# Hs-578T = tested on: Hs-578T
# IGROV-1 = tested on: IGROV-1
# KM12 = tested on: KM12
# LOX IMVI = tested on: LOX IMVI
# M14 = tested on: M14
# MCF7 = tested on: MCF7
# MDA-MB-231 = tested on: MDA-MB-231
# MDA-MB-435 = tested on: MDA-MB-435
# MDA-N = tested on: MDA-N
# MOLT-4 = tested on: MOLT-4
# Malme-3M = tested on: Malme-3M
# NCI-H226 = tested on: NCI-H226
# NCI-H23 = tested on: NCI-H23
# NCI-H460 = tested on: NCI-H460
# NCI-H522 = tested on: NCI-H522
# NCI/ADR-RES = tested on: NCI/ADR-RES
# OVCAR-3 = tested on: OVCAR-3
# OVCAR-4 = tested on: OVCAR-4
# OVCAR-5 = tested on: OVCAR-5
# OVCAR-8 = tested on: OVCAR-8
# PC-3 = tested on: PC-3
# RPMI-8226 = tested on: RPMI-8226
# RXF 393 = tested on: RXF 393
# SF-268 = tested on: SF-268
# SF-295 = tested on: SF-295
# SF-539 = tested on: SF-539
# SK-MEL-28 = tested on: SK-MEL-28
# SK-MEL-2 = tested on: SK-MEL-2
# SK-MEL-5 = tested on: SK-MEL-5
# SK-OV-3 = tested on: SK-OV-3
# SN12C = tested on: SN12C
# SNB-19 = tested on: SNB-19
# SNB-75 = tested on: SNB-75
# SW-620 = tested on: SW-620
# T47D = tested on: T47D
# TK-10 = tested on: TK-10
# U-251 = tested on: U-251
# UACC-257 = tested on: UACC-257
# UACC-62 = tested on: UACC-62
# UO-31 = tested on: UO-31
# HOP-92 = tested on: HOP-92
# K562 = tested on: K562
structure (smiles),measurement,setting,value
N#Cc1nnn(C2CCCCC2)c1O,GI50,786-0,> 100 µM (inactive)
same,GI50,A498,> 100 µM (inactive)
same,GI50,A549,> 100 µM (inactive)
same,GI50,ACHN,> 100 µM (inactive)
same,GI50,BT-549,> 100 µM (inactive)
same,GI50,CAKI-1,> 100 µM (inactive)
same,GI50,CCRF-CEM,> 100 µM (inactive)
same,GI50,COLO 205,> 100 µM (inactive)
same,GI50,DU-145,> 100 µM (inactive)
same,GI50,EKVX,> 100 µM (inactive)
same,GI50,HCC 2998,> 100 µM (inactive)
same,GI50,HCT-116,> 100 µM (inactive)
same,GI50,HCT-15,> 100 µM
same,GI50,HL-60,> 100 µM (inactive)
same,GI50,HOP-62,> 100 µM (inactive)
same,GI50,HT-29,> 100 µM (inactive)
same,GI50,Hs-578T,> 100 µM (inactive)
same,GI50,IGROV-1,> 100 µM (inactive)
same,GI50,KM12,> 100 µM (inactive)
same,GI50,LOX IMVI,> 100 µM (inactive)
same,GI50,M14,> 100 µM (inactive)
same,GI50,MCF7,> 100 µM (inactive)
same,GI50,MDA-MB-231,> 100 µM (inactive)
same,GI50,MDA-MB-435,> 100 µM (inactive)
same,GI50,MDA-N,> 100 µM (inactive)
same,GI50,MOLT-4,> 100 µM (inactive)
same,GI50,Malme-3M,> 100 µM (inactive)
same,GI50,NCI-H226,> 100 µM (inactive)
same,GI50,NCI-H23,> 100 µM (inactive)
same,GI50,NCI-H460,> 100 µM (inactive)
same,GI50,NCI-H522,> 100 µM (inactive)
same,GI50,NCI/ADR-RES,> 100 µM (inactive)
same,GI50,OVCAR-3,> 100 µM (inactive)
same,GI50,OVCAR-4,> 100 µM (inactive)
same,GI50,OVCAR-5,> 100 µM (inactive)
same,GI50,OVCAR-8,> 100 µM (inactive)
same,GI50,PC-3,> 100 µM (inactive)
same,GI50,RPMI-8226,10 µM (inactive)
same,GI50,RXF 393,> 100 µM (inactive)
same,GI50,SF-268,> 100 µM (inactive)
same,GI50,SF-295,> 100 µM (inactive)
same,GI50,SF-539,> 100 µM (inactive)
same,GI50,SK-MEL-28,> 100 µM (inactive)
same,GI50,SK-MEL-2,> 100 µM (inactive)
same,GI50,SK-MEL-5,> 100 µM (inactive)
same,GI50,SK-OV-3,> 100 µM (inactive)
same,GI50,SN12C,> 100 µM (inactive)
same,GI50,SNB-19,> 100 µM (inactive)
same,GI50,SNB-75,> 100 µM (inactive)
same,GI50,SW-620,> 100 µM (inactive)
same,GI50,T47D,> 100 µM (inactive)
same,GI50,TK-10,> 100 µM (inactive)
same,GI50,U-251,> 100 µM (inactive)
same,GI50,UACC-257,> 100 µM (inactive)
same,GI50,UACC-62,> 100 µM (inactive)
same,GI50,UO-31,> 100 µM (inactive)
COc1ccc(NC(=S)c2ccoc2C)cc1CC(=O)OC(C)C,GI50,786-0,> 100 µM (inactive)
same,GI50,A549,26.4 µM (inactive)
same,GI50,ACHN,30.8 µM (inactive)
same,GI50,BT-549,> 10 µM (inactive)
same,GI50,CAKI-1,29.2 µM (inactive)
same,GI50,CCRF-CEM,43.9 µM (inactive)
same,GI50,COLO 205,17.7 µM (inactive)
same,GI50,DU-145,48.3 µM (inactive)
same,GI50,EKVX,25.1 µM (inactive)
same,GI50,HCC 2998,45.5 µM (inactive)
same,GI50,HCT-116,55.8 µM (inactive)
same,GI50,HCT-15,55.2 µM
same,GI50,HL-60,22.1 µM (inactive)
same,GI50,HOP-92,20.6 µM (inactive)
same,GI50,HT-29,16.7 µM (inactive)
same,GI50,Hs-578T,45.2 µM (inactive)
same,GI50,IGROV-1,36 µM (inactive)
same,GI50,K562,34.8 µM (inactive)
same,GI50,KM12,29.7 µM (inactive)
same,GI50,LOX IMVI,18.8 µM (inactive)
same,GI50,M14,24.9 µM (inactive)
same,GI50,MCF7,22 µM (inactive)
same,GI50,MDA-MB-231,81.5 µM (inactive)
same,GI50,MDA-MB-435,46.2 µM (inactive)
same,GI50,MDA-N,31 µM (inactive)
same,GI50,MOLT-4,18.8 µM (inactive)
same,GI50,NCI-H226,12.4 µM (inactive)
same,GI50,NCI-H23,46.2 µM (inactive)
same,GI50,NCI-H460,31.8 µM (inactive)
same,GI50,NCI-H522,36.3 µM (inactive)
same,GI50,NCI/ADR-RES,17.5 µM (inactive)
same,GI50,OVCAR-3,26.5 µM (inactive)
same,GI50,OVCAR-4,30.1 µM (inactive)
same,GI50,OVCAR-5,> 100 µM (inactive)
same,GI50,OVCAR-8,29 µM (inactive)
same,GI50,PC-3,21.9 µM (inactive)
same,GI50,RPMI-8226,50.8 µM (inactive)
same,GI50,SF-268,43.4 µM (inactive)
same,GI50,SF-295,38.1 µM (inactive)
same,GI50,SF-539,37.3 µM (inactive)
same,GI50,SK-MEL-28,34.4 µM (inactive)
same,GI50,SK-MEL-2,18.2 µM (inactive)
same,GI50,SK-MEL-5,34.1 µM (inactive)
same,GI50,SK-OV-3,54 µM (inactive)
same,GI50,SN12C,66.1 µM (inactive)
same,GI50,SNB-19,61.5 µM (inactive)
same,GI50,SNB-75,15.7 µM (inactive)
same,GI50,SW-620,36.1 µM (inactive)
same,GI50,T47D,24.8 µM (inactive)
same,GI50,TK-10,33.3 µM (inactive)
same,GI50,U-251,67 µM (inactive)
same,GI50,UACC-257,33.4 µM (inactive)
same,GI50,UACC-62,26 µM (inactive)
same,GI50,UO-31,30.6 µM (inactive)
